In patent publication US7411090B2, “Process for the recovery of citric acid” (A.E. Staley Manufacturing Company, priority 2003, dated 2008):

Experiment: Extraction into non-amine (NA) solvent from solutions containing both glucose and citric acid
Type: physicochemical
Conditions: selectivity decreases with increase in distribution of citric into solvent phase
Source text: The citric/glucose selectivity decreases with the increase in the distribution of citric into the solvent phase.

O=C(O)CC(O)(CC(=O)O)C(=O)O [citric acid]
citric/glucose selectivity of extraction into the NA solvent: selectively extracted
